Measurements from ChEMBL document CHEMBL1201862, “PubChem BioAssay data set” (2004).
The source made the active and inactive calls.

Tests used:
[1] = growth inhibition of MALME3 cells – cell-based, CellTiter-Glo luminescence, dry powder, set 5, orthogonal assay for MITF inhibitor project, dose response (AID 651584); type: functional; details: MALME-3
[2] = inhibitors of TRPM1-promoter reporter in SK-MEL-5 – cell-based, luciferase, dry powder, set 9, MITF inhibitor project, dose response (AID 651588); type: functional
[3] = MITF Orthogonal Assay: SK-MEL-5 CTG Assay Measured in Cell-Based System Using Plate Reader - 2084-02_Inhibitor_Dose_DryPowder_Activity_Set5.; type: functional
[4] = growth inhibition of SK-MEL-5 melanoma cells – cell-based, CellTiter-Glo luminescence, dry powder, set 8, orthogonal assay for MITF inhibitor project, dose response (AID 651586); type: functional
[5] = viability loss in MITF-independent A375 cells – cell-based, CellTiter-Glo luminescence, dry powder, set 6, counter-screen for MITF inhibitor project, dose response (AID 624488); type: functional; details: A-375
[6] = cytotoxicity in melanoma parental cells – cell-based, CellTiter-Glo, dry powder, set 6, MITF inhibitor project, dose response (AID 624429); type: functional; details: SK-MEL-5
[7] = MITF Measured in Cell-Based System Using Plate Reader - 2084-01_Inhibitor_Dose_DryPowder_Activity_Set6.; type: functional
[8] = viability loss in MITF-independent A375 cells – cell-based, CellTiter-Glo luminescence, dry powder, set 2, counter-screen for MITF inhibitor project, dose response (AID 624489); type: functional; details: A-375;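 further: actives are compounds lowering A375 viability meaning general cytotoxicity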
[9] = cytotoxicity in MITF-independent A375 cells – cell-based, CellTiter-Glo luminescence, dry powder, set 4, counter-screen for MITF inhibitor project, dose response (AID 624364); type: functional; details: A-375;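 further: A375 melanoma cells are MITF independent so this is a counter screen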
[10] = MITF Measured in Cell-Based System Using Plate Reader - 2084-01_Inhibitor_Dose_DryPowder_Activity_Set7.; type: functional
[11] = viability loss in MITF-independent A375 cells – cell-based, CellTiter-Glo luminescence, dry powder, set 7, counter-screen for MITF inhibitor project, dose response (AID 624490); type: functional; details: A-375
[12] = MITF Orthogonal Assay: MALME3 CTG Assay Measured in Cell-Based System Using Plate Reader - 2084-04_Inhibitor_Dose_DryPowder_Activity_Set6.; type: functional; details: MALME-3
[13] = cytotoxicity in MITF-independent A375 cells – cell-based, CellTiter-Glo luminescence, dry powder, set 9, counter-screen for MITF modulator project, dose response (AID 651591); type: functional; details: A-375
[14] = human cervical cancer cell viability loss – 24 h, plate reader, dry powder, cytotoxicity control, dose response (AID 686928); type: functional, cell-based; details: HeLa
[15] = growth inhibition of PfATP4-mutant resistant parasites – NITD609-resistant line, SYBR Green, dry powder, dose response (AID 1159571); type: functional, cell-based;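 further: parasites synchronized at ring stage by sorbitol before testing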
[16] = toxicity to human hepatoma HepG2 cells – cell-based, cherry-picked samples, cytotoxicity control, dose response (AID 1159577); type: functional
[17] = toxicity to human HepG2 hepatoma cells – cell-based, plate reader, dry powder samples, cytotoxicity control, dose response (AID 1159569); type: functional;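 further: inhibitor potency with signal falling toward the positive control level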
[18] = P. falciparum Dd2 growth inhibitors, dose response, SYBR Green, cherry-picked samples (AID 1159567); type: functional, cell-based
[19] = Dd2 malaria parasite growth inhibition potency – SYBR Green, dry powder samples, dose response (AID 1159566); type: functional, cell-based;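 further: potency for growth inhibition with lower SYBR green DNA signal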
[20] = growth inhibition of yeast DHODH-expressing 3D7 parasites – SYBR Green, dry powder samples, dose response (AID 1159570); type: functional, cell-based;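 further: parasite growth measured after 72 hours of compound exposure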

Measured: AC50

CCN1CCN(C2=C(NC(=O)c3ccccc3)C(=O)c3ccccc3C2=O)CC1
active: [1] 5.64 µM | [2] 1.72 µM | [3] 6.95 µM | [4] 9.73 µM | [5] 15.8 µM | [6] 9.53 µM | [7] 0.523 µM | [8] 11.2 µM | [9] 26.7 µM | [10] 0.729 µM | [11] 10.1 µM | [12] 5.64 µM | [13] 27.3 µM

O=c1ncn(-c2cccc(Cl)c2)c2cc(Cl)ccc12
inactive: [14] > 160 µM

C[C@H]1CN([C@@H](C)CO)C(=O)c2c(c3ccccc3n2C)-c2ccccc2CO[C@H]1CN(C)Cc1ccc(-c2ccccc2)cc1
inactive: [16] > 39 µM
active: [15] 2.1 µM | [17] 28.9 µM | [18] 2.64 µM | [19] 1.54 µM | [20] 3.14 µM

O=c1c2ccccc2n(CC(O)CN2CCCCC2)c2ccccc12 (stereo unspecified)
active: cells 3.43 µM
